Patent publication US12102686B2, “Delivery systems and methods for reactive hydroxyl-containing compounds” (priority 2018, dated 2024)

Assay: Free curcumin stability and consumption in the presence of AAPH (absorbance at 420 nm, HPLC)
Format: physicochemical
Description: Periodic samples were collected and read at 420 nm using a Cary 50 UV-Vis Microplate Reader spectroscopy instrument to monitor absorbance of solution over 24 hours.

Compound: COc1cc(/C=C/C(=O)CC(=O)/C=C/c2ccc(O)c(OC)c2)ccc1O [Curcumin]
- time curcumin was stable in aqueous solution (no significant change in absorbance, no precipitation) (50 μg/mL curcumin in 0.1% (w/v) Tween 80 PBS (pH 7.4), 37° C., no AAPH): over 24 hours
- time after which the amount of curcumin decreases to 20% (10 mM AAPH): 4 h
- curcumin consumed (10 mM AAPH solution, within the first 8 hours): 90%
- time after which the amount of curcumin decreases to 20% (100 mM AAPH): 0.333 h
- time of finality of curcumin consumption, experimental (100 mM AAPH): 8 h
- curcumin consumed (100 mM AAPH solution, within the first hour): 90%
- curcuminoid consumption susceptibility by AAPH (HPLC peak) (versus demethoxycurcumin and bisdemethoxycurcumin, FIG. 3): diminished at a faster rate
